Biological target: T1, human ferroportin (Homo sapiens, UniProt Q9NP59)
T1 construct: luciferase reporter (read with the Nano-Glo Luciferase Assay System); expressed in transfected cells; host or cells: CHO cells, stably transfected, expression induced with doxycycline
T1 sequence (Q9NP59 1-571): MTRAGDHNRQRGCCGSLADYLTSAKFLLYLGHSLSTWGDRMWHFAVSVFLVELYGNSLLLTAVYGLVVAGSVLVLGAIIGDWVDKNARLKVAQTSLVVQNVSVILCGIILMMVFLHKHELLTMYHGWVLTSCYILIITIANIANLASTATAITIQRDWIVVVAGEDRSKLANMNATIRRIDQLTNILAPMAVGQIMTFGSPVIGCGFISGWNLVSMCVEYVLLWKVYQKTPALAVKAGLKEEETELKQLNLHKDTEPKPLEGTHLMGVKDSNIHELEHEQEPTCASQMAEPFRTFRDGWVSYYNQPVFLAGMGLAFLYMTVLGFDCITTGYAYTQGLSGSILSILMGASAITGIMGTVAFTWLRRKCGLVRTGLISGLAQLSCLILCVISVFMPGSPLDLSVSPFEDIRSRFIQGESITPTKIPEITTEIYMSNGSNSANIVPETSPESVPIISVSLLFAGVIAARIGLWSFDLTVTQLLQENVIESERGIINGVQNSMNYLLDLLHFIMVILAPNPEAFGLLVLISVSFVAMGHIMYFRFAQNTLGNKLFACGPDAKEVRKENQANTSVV
Test: Biological in-vitro ferroportin internalization assay (luciferase reporter)
Assay type: cell-based
Conditions: average pEC50; stably-transfected CHO cell line expressing human ferroportin tagged to a luciferase reporter; 6 h incubation with test compound
In short: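 Stably transfected CHO cells expressing luciferase-tagged human ferroportin, plated 24 h with ferric ammonium citrate and induced with doxycycline for 24 h. Compounds incubated 6 h, then luciferase activity measured by Nano-Glo; average pEC50 reported.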

Structure (SMILES) | pEC50
COc1ccnc(-c2nc3c(c(N(C)CC(=O)N[C@@H]4CCC[C@H]4O)n2)CCC3)c1 (relative stereo) [Compound 172, N-[(1R,2R)-2-hydroxycyclopentyl]-2-{[2-(4-methoxypyridin-2-yl)-5H,6H,7H-cyclopenta[d]pyrimidin-4-yl](methyl)amino}acetamide] | 7.5
COc1cc(-c2nc3c(c(N(C)CC(=O)Nc4ccc(C)nc4)n2)CCC3)ncc1F [Compound 306, 2-{[2-(5-fluoro-4-methoxypyridin-2-yl)-5H,6H,7H-cyclopenta[d]pyrimidin-4-yl](methyl)amino}-N-(6-methylpyridin-3-yl)acetamide] | 6.6
CN(CC(=O)NC1CCCCC1)c1nc(-c2cc(OCCO)ccn2)nc2c1CCC2 [Compound 144, N-cyclohexyl-2-({2-[4-(2-hydroxyethoxy)pyridin-2-yl]-5H,6H,7H-cyclopenta[d]pyrimidin-4-yl}(methyl)amino)acetamide] | 7.5
C[C@H](CN(C)C)Oc1ccnc(-c2nc3c(c(N(C)CC(=O)NC4(C(F)(F)F)CC4)n2)CCC3)c1 [Compound 486, 2-{[2-(4-{[(2R)-1-(dimethylamino)propan-2-yl]oxy}pyridin-2-yl)-5H,6H,7H-cyclopenta[d]pyrimidin-4-yl](methyl)amino}-N-[1-(trifluoromethyl)cyclopropyl]acetamide] | 7.4
Cc1ccc(-c2nc3c(c(N(C)CC(=O)NC(C)(C)C)n2)CCC3)nc1 [Compound 104, N-tert-butyl-2-{methyl[2-(5-methylpyridin-2-yl)-5H,6H,7H-cyclopenta[d]pyrimidin-4-yl]amino}acetamide] | 7.2
Cc1cccc(NC(=O)CN(C)c2nc(-c3cc(OCCO)ccn3)nc3c2CCC3)c1 [Compound 292, 2-({2-[4-(2-hydroxyethoxy)pyridin-2-yl]-5H,6H,7H-cyclopenta[d]pyrimidin-4-yl}(methyl)amino)-N-(3-methylphenyl)acetamide] | 8.1
C[C@@H](C(=O)NC(C)(C)C)N(C)c1nc(-c2ccccn2)nc2c1CCC2 [Compound 52, (2S)—N-tert-butyl-2-{methyl[2-(pyridin-2-yl)-5H,6H,7H-cyclopenta[d]pyrimidin-4-yl]amino}propanamide] | 6.8
CC(C(=O)NC(C)(C)C)N(C)c1nc(-c2ccccn2)nc2c1CCC2 (stereo not drawn) [Compound 90, N-tert-butyl-2-{methyl[2-(pyridin-2-yl)-5H,6H,7H-cyclopenta[d]pyrimidin-4-yl]amino}propanamide] | 7.4
CN(CC(=O)NC1CCOC1)c1nc(-c2cc(OCCO)ccn2)nc2c1CCC2 (stereo not drawn) [Compound 149, 2-({2-[4-(2-hydroxyethoxy)pyridin-2-yl]-5H,6H,7H-cyclopenta[d]pyrimidin-4-yl}(methyl)amino)-N-(oxolan-3-yl)acetamide] | 7.2
CN(CC(=O)NC1COC1)c1nc(-c2cc(OCCO)ccn2)nc2c1CCC2 [Compound 374, 2-({2-[4-(2-hydroxyethoxy)pyridin-2-yl]-5H,6H,7H-cyclopenta[d]pyrimidin-4-yl}(methyl)amino)-N-(oxetan-3-yl)acetamide] | 7.2
COc1ccc(NC(=O)CN(C)c2nc(-c3cc(OC(F)(F)F)ccn3)nc3c2CCC3)cn1 [Compound 230, N-(6-methoxypyridin-3-yl)-2-[methyl({2-[4-(trifluoromethoxy)pyridin-2-yl]-5H,6H,7H-cyclopenta[d]pyrimidin-4-yl})amino]acetamide] | 6.6
CN(CC(=O)NC(C)(C)C)c1nc(-c2cc(OC3COC3)ccn2)nc2c1CCC2 [Compound 245, N-tert-butyl-2-[methyl({2-[4-(oxetan-3-yloxy)pyridin-2-yl]-5H,6H,7H-cyclopenta[d]pyrimidin-4-yl})amino]acetamide] | 7.7
CN(CC(=O)NC1(C)CCCCC1)c1nc(-c2ccccn2)nc2c1CCC2 [Compound 25, 2-{methyl[2-(pyridin-2-yl)-5H,6H,7H-cyclopenta[d]pyrimidin-4-yl]amino}-N-(1-methylcyclohexyl)acetamide] | 7.1
COc1cnc(-c2nc3c(c(N(C)CC(=O)NC(C)(C)C)n2)CCC3)cn1 [Compound 12, N-tert-butyl-2-{[2-(5-methoxypyrazin-2-yl)-5H,6H,7H-cyclopenta[d]pyrimidin-4-yl](methyl)amino}acetamide] | 5.8
COc1ccnc(-c2nc3c(c(N(C)CC(=O)NC(C)(C)CO)n2)CCC3)c1 [Compound 136, N-(1-hydroxy-2-methylpropan-2-yl)-2-{[2-(4-methoxypyridin-2-yl)-5H,6H,7H-cyclopenta[d]pyrimidin-4-yl](methyl)amino}acetamide] | 7.7
C[C@H](C(=O)NC1CCCCC1)N(C)c1nc(-c2ccccn2)nc2c1CCC2 [Compound 108, (2R)—N-cyclohexyl-2-{methyl[2-(pyridin-2-yl)-5H,6H,7H-cyclopenta[d]pyrimidin-4-yl]amino}propanamide] | 7.6
CN(CC(=O)Nc1cccnc1)c1nc(-c2cc3ccccc3cn2)nc2c1CCC2 [Compound 228] | 7.1
CO[C@@H]1CCN(CCOc2ccnc(-c3nc4c(c(N(C)CC(=O)NC(C)(C)C)n3)CCC4)c2)C1 [Compound 463, N-tert-butyl-2-{[2-(4-{2-[(3R)-3-methoxypyrrolidin-1-yl]ethoxy}pyridin-2-yl)-5H,6H,7H-cyclopenta[d]pyrimidin-4-yl](methyl)amino}acetamide] | 8.1
COCCOc1ccnc(-c2nc3c(c(N(C)CC(=O)Nc4ccc(OC)nc4)n2)CCC3)c1 [Compound 238, 2-({2-[4-(2-methoxyethoxy)pyridin-2-yl]-5H,6H,7H-cyclopenta[d]pyrimidin-4-yl}(methyl)amino)-N-(6-methoxypyridin-3-yl)acetamide] | 7.5
CN(CC(=O)NC(C)(C)C)c1nc(-c2ccn(C)n2)nc2c1CCC2 [Compound 160, N-tert-butyl-2-{methyl[2-(1-methyl-1H-pyrazol-3-yl)-5H,6H,7H-cyclopenta[d]pyrimidin-4-yl]amino}acetamide] | 5.2
CN(Cc1ccccn1)c1nc(-c2ccccn2)nc2c1CCC2 [Compound 73, N-methyl-2-(pyridin-2-yl)-N-[(pyridin-2-yl)methyl]-5H,6H,7H-cyclopenta[d]pyrimidin-4-amine] | 6.8
CN(CC(=O)Nc1ccc2cccnc2c1)c1nc(-c2ccccn2)nc2c1CCC2 [Compound 21, 2-{methyl[2-(pyridin-2-yl)-5H,6H,7H-cyclopenta[d]pyrimidin-4-yl]amino}-N-(quinolin-7-yl)acetamide] | 6.9
Cc1cncc(NC(=O)CN(C)c2nc(-c3cc4ccccc4cn3)nc3c2CCC3)c1 [Compound 235, 2-{[2-(isoquinolin-3-yl)-5H,6H,7H-cyclopenta[d]pyrimidin-4-yl](methyl)amino}-N-(5-methylpyridin-3-yl)acetamide] | 7.5
CN(CC(=O)N(C)C(C)(C)C)c1nc(-c2cc(OC3COC3)ccn2)nc2c1CCC2 [Compound 322, N-tert-butyl-N-methyl-2-[methyl({2-[4-(oxetan-3-yloxy)pyridin-2-yl]-5H,6H,7H-cyclopenta[d]pyrimidin-4-yl})amino]acetamide] | 7.7
CN(CC(=O)NC(C)(C)C)c1nc(-c2cc(OCC3CC3)ccn2)nc2c1CCC2 [Compound 159, N-tert-butyl-2-({2-[4-(cyclopropylmethoxy)pyridin-2-yl]-5H,6H,7H-cyclopenta[d]pyrimidin-4-yl}(methyl)amino)acetamide] | 8.0
CN(CC(=O)NC(C)(C)C)c1cc(-c2ccccn2)nc2c1CCC2 [Compound 16, N-tert-butyl-2-{methyl[2-(pyridin-2-yl)-5H,6H,7H-cyclopenta[b]pyridin-4-yl]amino}acetamide] | 6.6
CN(CC(=O)NC(C)(C)C)c1nc(-c2cc(OC[C@@H]3CCCN3C)ccn2)nc2c1CCC2 [Compound 412, N-tert-butyl-2-{methyl[2-(4-{[(2S)-1-methylpyrrolidin-2-yl]methoxy}pyridin-2-yl)-5H,6H,7H-cyclopenta[d]pyrimidin-4-yl]amino}acetamide] | 8.1
COc1ccc(NC(=O)CN(C)c2nc(-c3cc(OC4COC4)ccn3)nc3c2CCC3)cc1 [Compound 327, N-(4-methoxyphenyl)-2-[methyl({2-[4-(oxetan-3-yloxy)pyridin-2-yl]-5H,6H,7H-cyclopenta[d]pyrimidin-4-yl})amino]acetamide] | 7.9
Cc1cc(NC(=O)CN(C)c2nc(-c3cc(OCCO)ccn3)nc3c2CCC3)sn1 [Compound 350, 2-({2-[4-(2-hydroxyethoxy)pyridin-2-yl]-5H,6H,7H-cyclopenta[d]pyrimidin-4-yl}(methyl)amino)-N-(3-methyl-1,2-thiaozl-5-yl)acetamide] | 7.7
CC(=O)NCCOc1ccnc(-c2nc3c(c(N(C)CC(=O)NC(C)(C)C)n2)CCC3)c1 [Compound 369, N-tert-butyl-2-({2-[4-(2-acetamidoethoxy)pyridin-2-yl]-5H,6H,7H-cyclopenta[d]pyrimidin-4-yl}(methyl)amino)acetamide] | 7.7
